In paper PMC5636194 (Journal of nanomedicine & nanotechnology, 2017):

Legend:
T98G cells [1] = assay: Cellular bioenergetics analysis (Seahorse XF24 oxygen consumption); type: cell-based
Experimental: (§1) Assay was performed according to manufacturer’s directions and as previously described, where U87 and T98G cells were plated at 30,000 cells/well in an XF24 plate and allowed to attach overnight. Media was replaced an hour before onset of the assay with XF24 media, and then, rotenone/antimycin A mix, FCCP, and oligomycin were diluted in XF24 media and loaded into the provided cartridge to obtain final concentrations of 100 nM, 300 nM, and 1 µg/mL, respectively. […] Addition of the compounds into the medium took place at designated time points, and oxygen consumption was examined using a Seahorse Bioscience XF24 Extracellular Flux Analyzer.

U87 cells [2] = assay: as above; type: cell-based
Experimental: as §1

U87 cells [3] = assay: ATP quantification (luciferase luminescence); type: cell-based; conditions: 10 µM, 24 hours
Experimental: U87 and T98G cells were seeded into 6-well plates at 200,000 cells/well in 1 mL DMEM high glucose with pyruvate (10% FBS and 1% Pen/Strep) and allowed to grow overnight. […] Following a modified protocol outlined in an ATP kit obtained from Life Technologies, cells were washed twice with PBS, then lysed with 150 uL of ATP assay buffer (500 mM Tricine buffer, pH 7.8, 100 mM MgSO4, 2 mM EDTA, and 2 mM sodium azide) containing 1% Triton X-100, dislodged by scraping with a pipette tip, and transferred to 1.5 mL Eppendorf tubes on ice for 5 minutes. 10 uL of cell lysate was then added in triplicate to a white 96-well plate, also containing ATP standards. Before reading the plate, 100 uL of ATP assay buffer containing 90 µg/mL D-luciferin, 20 µM DTT, and 25 µg/mL Luciferase) was added to each well. Luminescence was calculated using a Tecan Infinite F200 plate reader. Protein concentration was also determined using the Pierce 660 nm Protein Assay (660 nm absorbance), with ATP production standardized to protein values.

T98G cells [4] = assay: Glucose quantification in medium; type: cell-based; conditions: 10 µM, 48 and 72 hours
Experimental: Glucose was measured per instructions from a kit manufactured by Sigma-Aldrich. Briefly, 200,000 U87 and T98G cells were seeded into a 6-well plate and incubated overnight. […] After designated times, medium was removed, diluted 1:100 in glucose assay buffer (glucose oxidase, horseradish peroxidase, and O-dianisidine), then added to a 96-well plate at a 1:3 dilution in glucose assay buffer. The plate was then incubated at 37°C and 5% CO2 for 30 minutes, and the reactions halted by the addition of 66 uL of 12 N sulfuric acid. Absorbance values were evaluated at 540 nm on a Biotek Synergy 2 plate reader.

T98G cells [5] = assay: Cell viability (calcein AM); type: cell-based; conditions: 10 µM
Experimental: (§2) U87 and T98G cells were seeded at 750 cells/well in 100 µL DMEM high glucose with pyruvate (10% FBS and 1% Pen/Strep) in a black, 96-well flat-bottomed plate, and allowed to attached overnight. […] The next morning, the plates were washed with 200 µL/well 1X PBS, which was removed and replaced with 95 µL calcein AM reagent at 1:1000 dilution in 1X PBS.

U87 cells [6] = assay: Cell viability (calcein AM); type: cell-based
Experimental: as §2

T98G cells [7] = assay: Liquid colony formation assay (4 weeks); type: cell-based; conditions: 10 µM
Experimental: (§3) Cells were seeded into 6-well culture plates (Falcon) at a concentration of 50 cells/well in 1 mL DMEM high glucose with pyruvate (Gibco), 10% FBS, and 1% Pen/Strep. Treatments were added to each well to obtain a pre-determined final concentration in 2 mL/well total volume. Plates were incubated for 4 weeks undisturbed, and only carefully received a media change at week 3 with or without drug treatments if colonies were not visible. Following completion of the 4-week incubation period, colonies were stained as previously described. […] Stained colonies were counted, with the number and size documented.

U87 cells [8] = assay: Liquid colony formation assay (4 weeks); type: cell-based; conditions: 10 µM
Experimental: as §3

[9] = In vivo bio-distribution (LC-MS/MS, noncompartmental PK); set-up: species or system mice (CD-1); conditions: female, mouse; CD-1 mice, single IV dose 8 mg/kg, plasma
Experimental: Female mice (CD-1 background, 5–6 weeks old) were used for all bio-distribution studies. […] Plasma was processed from whole blood by centrifugation of EDTA-treated blood for 10 minutes at 9,600g, then stored at −80°C until analyzed. In addition, kidneys, spleen, lung, liver, and brain were removed, weighed; flash frozen, then homogenized in a 3-fold volume of PBS for further analysis and stored at −80°C. […] Next, 100 µL of each sample (plasma or tissue homogenate) was crashed with 200 µL methanol+0.1% formic acid+50 ng/mL (final concentration) n-benzyl benzamide internal standard, vortexed for 15 seconds, incubated at room temperature for 10 minutes, then centrifuged at 16,000g for 5 minutes at 4°C. 250 µL of supernatant was then transferred to an Eppendorf tube, centrifuged as previously described, then 195 µL of supernatant transferred to an HPLC vial with insert for analysis by HPLC-MS/MS (AB Sciex 3200 QTrap). […] The limit of detection (LOD) was set at the standard concentration providing an analyte signal three-fold above blank matrix. […] Per UTSW’s lab SOPs, samples falling below LOQ and above LOD are assigned a value of ½LOQ. Samples falling below LOQ and LOD are assigned a value of 0.

SMILES: CN(C)c1ccc2nc3ccc(=[N+](C)C)cc-3sc2c1 [MB, methylene blue]
- Increase in OCR (T98G cells [1]; 10 µM): 1.5 fold
- Oxygen consumption rate (OCR) (T98G cells [1]; 1 and 10 µM): significantly increased
- Oxygen consumption rate (OCR) (U87 cells [2]; 10 µM): significant increase
- Oxygen consumption rate (OCR) (U87 cells [2]; lower treatment concentration (1 µM)): not seen
- ATP levels compared to control (U87 cells [3]): increased
- Sample glucose compared to untreated cells (T98G cells [4]): significant increases
- Initial reduction in cell viability (T98G cells [5]; 24 and 72 hours): 25%
- Additional reduction in cell viability (T98G cells [5]; through […]): ~ 50%
- Cell viability over time course (U87 cells [6]; 10 µM, 24, 72 and […]): did not induce cell death until 72 and 144 hours
- Cell viability (U87 cells [6]; 10 µM, 24-hour treatment): increase in cell viability
- Average colony size compared to control (T98G cells [7]): significantly reduced
- Average number of colonies (T98G cells [7]): significantly reduced
- Average colony size compared to control (U87 cells [8]): significantly reduced
- Average number of colonies (U87 cells [8]): reduced
- AUC [9]: 2130 ng·h/mL
